Where “and” joins values, the source holds several entries; their conditions need not be identical. Identical values can stand only once. Inconclusive results and toxic doses are left out. No stated cut-off is given here; in the data, active means T/C of 150% or more; inactive means T/C below 125%.
Tested on: L1210 leukemia ip in BDF1 mice, survival T/C
Test: NCI In Vivo Anticancer Drug Screen. Data for tumor model L1210 Leukemia (intraperitoneal) in B6D2F1 (BDF1) mice
Settings: endpoint: mean survival time, higher = longer survival
Summary of the method: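 Mice bearing the transplanted tumor received compound or vehicle. Survival of the treated group was divided by that of the vehicle-treated control group to give the ratio.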

[1] = dose: 50.0 mg/kg/injection, schedule: Q01DX009 (ip), vehicle: saline with Tween-80
[2] = dose: 100.0 mg/kg/injection, schedule: Q01DX009 (ip), vehicle: saline with Tween-80
[3] = dose: 100.0 mg/kg/injection, schedule: Q04DX003 (ip), vehicle: saline with Tween-80
[4] = dose: 200.0 mg/kg/injection, schedule: Q01DX009 (ip), vehicle: saline with Tween-80
[5] = dose: 200.0 mg/kg/injection, schedule: Q04DX003 (ip), vehicle: saline with Tween-80
[6] = dose: 400.0 mg/kg/injection, schedule: Q04DX003 (ip), vehicle: saline with Tween-80
[7] = dose: 25.0 mg/kg/injection, schedule: Q01DX009 (ip), vehicle: saline with Tween-80
[8] = dose: 100.0 mg/kg/injection, schedule: Q01DX001 (ip), vehicle: saline
[9] = dose: 200.0 mg/kg/injection, schedule: Q01DX001 (ip), vehicle: saline
[10] = dose: 200.0 mg/kg/injection, schedule: Q01DX009 (ip), vehicle: Klucel (hydroxypropylcellulose) (HPC)
[11] = dose: 400.0 mg/kg/injection, schedule: Q01DX009 (ip), vehicle: Klucel (hydroxypropylcellulose) (HPC)
[12] = dose: 400.0 mg/kg/injection, schedule: Q01DX001 (ip), vehicle: saline
[13] = dose: 25.0 mg/kg/injection, schedule: Q04DX003 (ip), vehicle: Klucel (hydroxypropylcellulose) (HPC)
[14] = dose: 50.0 mg/kg/injection, schedule: Q04DX003 (ip), vehicle: Klucel (hydroxypropylcellulose) (HPC)
[15] = dose: 100.0 mg/kg/injection, schedule: Q04DX003 (ip), vehicle: Klucel (hydroxypropylcellulose) (HPC)
[16] = dose: 50.0 mg/kg/injection, schedule: Q01DX009 (ip), vehicle: Klucel (hydroxypropylcellulose) (HPC)
[17] = dose: 100.0 mg/kg/injection, schedule: Q01DX009 (ip), vehicle: Klucel (hydroxypropylcellulose) (HPC)
[18] = dose: 200.0 mg/kg/injection, schedule: Q04DX003 (ip), vehicle: Klucel (hydroxypropylcellulose) (HPC)
[19] = dose: 100.0 mg/kg/injection, schedule: Q04DX003 (ip), vehicle: saline
[20] = dose: 200.0 mg/kg/injection, schedule: Q04DX003 (ip), vehicle: saline
[21] = dose: 400.0 mg/kg/injection, schedule: Q04DX003 (ip), vehicle: saline
[22] = dose: 25.0 mg/kg/injection, schedule: Q01DX009 (ip), vehicle: Klucel (hydroxypropylcellulose) (HPC)
[23] = dose: 25.0 mg/kg/injection, schedule: Q04DX002 (ip), vehicle: saline
[24] = dose: 50.0 mg/kg/injection, schedule: Q04DX002 (ip), vehicle: saline
[25] = dose: 100.0 mg/kg/injection, schedule: Q04DX002 (ip), vehicle: saline

Measured: T/C

CCOc1ccc(Nc2cc([N+](=O)[O-])ccc2C(=O)O)cc1
inactive: dose: 25.0 mg/kg/injection, schedule: Q04DX003 (ip), vehicle: saline with Tween-80 101 % of control | [1] 103 % of control | dose: 50.0 mg/kg/injection, schedule: Q04DX003 (ip), vehicle: saline with Tween-80 95 % of control | [2] 109 % of control | [3] 107 % of control | [4] 98 % of control | [5] 93 % of control

CC(C)(C)c1cccc(OS(=O)(=O)c2cccc([N+](=O)[O-])c2)c1
inactive: [3] 95 % of control | [5] 100 % of control | [6] 100 % of control

Cc1ccc(S(=O)(=O)/C=C(\I)c2ccc([N+](=O)[O-])cc2)cc1
inactive: [7] 96 % of control | [1] 91 % of control | [8] 97 % of control | [2] 98 % of control | [9] 95 % of control

O=C(O)/C(=C\c1ccncc1)c1cccc2ccccc12
inactive: [3] 100 % of control | [10] 105 % of control | [5] 98 % of control | [11] 102 % of control | [6] 91 % of control

c1ccc2c(c1)CCc1c-2[nH]c2ccccc12
inactive: [2] 96 % of control | [4] 94 % of control

Cc1cc(OCCOC(=O)Nc2ccc(C)c([N+](=O)[O-])c2)ccc1Cl
inactive: [1] 93 % of control | [2] 87 % of control | [4] 87 % of control

CC(=O)OCC1OC(N2C(=O)/C(=C/c3ccc4ccccc4c3)SC2=S)C(OC(C)=O)C(OC(C)=O)C1OC(C)=O (configuration not stated)
inactive: dose: 25.0 mg/kg/injection, schedule: Q01DX005 (ip), vehicle: other 92 % of control | dose: 50.0 mg/kg/injection, schedule: Q01DX005 (ip), vehicle: other 97 % of control

O=C(COC(=O)c1ccccc1O)c1ccc(-c2ccccc2)cc1
inactive: [8] 94 % of control | [9] 88 % of control | [12] 88 % of control

CCC(C)C(C#N)(CCN1CCCCC1)Cc1cccc2ccccc12 (configuration not stated)
inactive: [13] 109 % of control | [14] 98 % of control | [2] 96 % of control | [15] 95 % of control

CC(=O)Nc1nccs1
inactive: [16] 94 % of control | [17] 97 % of control | [15] 97 % of control | [18] 97 % of control

CC(=O)N(CCC#N)CCC#N
inactive: [19] 95 % of control | [20] 96 % of control | [21] 93 % of control

Cc1cc(C)c(S(=O)(=O)O)cc1[N+](=O)[O-]
inactive: [17] 96 % of control | [10] 101 % of control | [11] 98 % of control

CN(C)CCN(Cc1ccccc1)c1ccccc1
inactive: [22] 98 % of control | [13] 95 % of control | [16] 102 % of control | [14] 103 % of control | [17] 106 % of control | [15] 103 % of control

CCNS(=O)(=O)c1ncnc2nc[nH]c12
inactive: dose: 44.0 mg/kg/injection, schedule: Q01DX Z (ip), vehicle: carboxymethylcellulose (CMC) 117 % of control | dose: 44.0 mg/kg/injection, schedule: Q01DX Z (ip), vehicle: methylcellulose (MC) 98 % of control | dose: 66.0 mg/kg/injection, schedule: Q01DX Z (ip), vehicle: carboxymethylcellulose (CMC) 123 % of control | dose: 66.0 mg/kg/injection, schedule: Q01DX Z (ip), vehicle: methylcellulose (MC) 102 % of control | dose: 100.0 mg/kg/injection, schedule: Q01DX Z (ip), vehicle: methylcellulose (MC) 106 % of control | dose: 150.0 mg/kg/injection, schedule: Q01DX Z (ip), vehicle: methylcellulose (MC) 102 % of control

CCC[CH2][Sn]([CH2]CC#N)([CH2]CCC)[CH2]CCC
inactive: [23] 97 % of control | [24] 94 % of control

CNCCNCC(Cc1ccccc1)c1ccccc1 (configuration not stated)
inactive: [23] 107 % of control | [24] 97 % of control | [25] 97 % of control

O=S1(=O)CC=CC1
inactive: [19] 103 % of control | [20] 97 % of control | [21] 97 % of control

CCN(CC)CCN(CCO)Cc1ccccc1
inactive: [13] 98 % of control | [16] 92 % of control | [14] 96 % of control | [17] 100 % of control | [15] 98 % of control and 101 % of control

C1CNC(C2=NCCN2)=N1
inactive: [25] 100 % of control | dose: 200.0 mg/kg/injection, schedule: Q04DX002 (ip), vehicle: saline 100 % of control | dose: 400.0 mg/kg/injection, schedule: Q04DX002 (ip), vehicle: saline 90 % of control

c1cc2c(cc1CCc1ccc3c(c1)OCO3)OCO2
inactive: dose: 100.0 mg/kg/injection, schedule: Q04DX002 (ip), vehicle: Klucel (hydroxypropylcellulose) (HPC) 96 % of control | dose: 200.0 mg/kg/injection, schedule: Q04DX002 (ip), vehicle: Klucel (hydroxypropylcellulose) (HPC) 86 % of control | dose: 400.0 mg/kg/injection, schedule: Q04DX002 (ip), vehicle: Klucel (hydroxypropylcellulose) (HPC) 104 % of control

CSC(=Nc1ccccc1)N(C)c1ccccc1
inactive: [15] 90 % of control | [18] 86 % of control | dose: 400.0 mg/kg/injection, schedule: Q04DX003 (ip), vehicle: Klucel (hydroxypropylcellulose) (HPC) 88 % of control

Cc1ccc([N+](=O)[O-])cc1NC(=O)SCCOC(=O)COc1ccc(Cl)cc1
inactive: [1] 97 % of control | [2] 97 % of control and 106 % of control | [4] 103 % of control

Cc1ncc(CO)c(/C=N/OCc2ccc(OCc3ccccc3)cc2)c1O
inactive: [3] 102 % of control | [5] 100 % of control

O=C(Nc1ccc(S(=O)(=O)NC2CCCCC2)cc1)OC1CCCCCCC1
inactive: [8] 89 % of control | [9] 94 % of control | [12] 96 % of control

O=C(Nc1ccccc1)Oc1c(Cl)cc(Cl)c(Cl)c1[N+](=O)[O-]
inactive: [22] 100 % of control | [16] 93 % of control | [17] 91 % of control

COc1cc(N)c([N+](=O)[O-])c(OC)c1
inactive: [7] 98 % of control | [1] 104 % of control | [2] 100 % of control | [3] 106 % of control

CN=C(NC)c1ccc(NC(=O)c2cc(Cl)cc(C(=O)Nc3ccc(C(=NC)NC)cc3)c2)cc1
inactive: dose: 1.88 mg/kg/injection, schedule: Q01DX Z (ip), vehicle: saline 88 % of control | dose: 3.75 mg/kg/injection, schedule: Q01DX Z (ip), vehicle: saline 94 % of control | dose: 7.5 mg/kg/injection, schedule: Q01DX Z (ip), vehicle: saline 93 % of control | dose: 15.0 mg/kg/injection, schedule: Q01DX Z (ip), vehicle: saline 104 % of control and 115 % of control

From PubChem BioAssay AID248 (DTP/NCI, 2004)
